Laboratory results reported in US8796280B2, “2,3-disubstituted pyrazinesulfonamides as CRTH2 inhibitors” (Merck Serono, S.A., priority 2005, dated 2014).

Columns and labels:
[1] = target: T1, CRTH2 (Homo sapiens (Human), UniProt Q9Y5Y4); assay: Determination of Ki, equilibrium competition binding against [3H]PGD2; conditions: competition against [3H]PGD2; average of at least three independent dose response experiments; Ki calculated from IC50
Procedure: (§1) The inhibitory activity can be investigated by a radioligand binding assay (Sawyer et al., Br. J. Pharmocol 2002, 137, 1163-72). The radioligand binding assay was performed at room temperature in binding buffer (10 mM HEPES/KOH pH […], with protease inhibitor cocktail tablets), containing 1.5 nM [^3H]PGD2 (Amersham, 156 Cie/mmol), and 10 μg of hCRTH2 HEK293 (EBNA) cell membrane protein in a final volume of 100 μl in 96 well plates (Corning, USA). Non-specific binding was determined in the presence of 1 μM PGD2 (Cayman, USA). Competing pyrazine sulfonamides were diluted in dimethylsulphoxide so that the total volume of dimethylsulfoxide was kept constant at 1% dimethylsulphoxide (Me2SO). 10 μl of the pyrazine sulfonamides were added. Incubation (60 min at room temperature) was terminated by rapid filtration through 96 wells hydrophobic GF/C Unifilter plates (Whatman, USA). Filters were washed twice with 250 μl of Tris-HCl pH 7.4, 10 mM MnCl2, and residual radioligand bound to the filters was mixed to 100 μl of liquid scintillation cocktail (Optiphase Supermix, Perkin Elmer, USA) and binding activity was determined by counting residual radioligand using a 1450 Micro-beta scintillation counter (Wallac, UK).
Ki values were determined by equilibrium competition binding experiments against [^3H]PGD2. Ki values were calculated from the formula below and represent the average of at least three independent dose response experiments. The Ki values give the ligand concentrations necessary to inhibit 50% of the binding of 3[H]PGD2 to CRTH2. Ki=IC50/(1+[Concentration of Ligand]/Kd)]
All experiments were performed in 96 well plates, in a final volume of 100 μl according to the above described filtration assay. The concentration of membranes and 3[H]PGD2, as well as the positive and negative controls were identical to the conditions described above.

[2] = target: T1, CRTH2; assay: Radioligand binding assay ([3H]PGD2 displacement, hCRTH2 HEK293 (EBNA) cell membranes); conditions: 1.5 nM [3H]PGD2, 10 μg hCRTH2 HEK293 (EBNA) membrane protein, 60 min room temperature; test concentration not given
Description: Human CRTH2 cDNA was amplified by PCR using a human urinary bladder cDNA library as a template and specific primers containing HindIII and BamHI restriction sites for cloning into the pCEP4 vector (Invitrogen). The vector construction is described in detail in Sawyer et al., Br. J. Pharmocol 2002, 137, 1163-72. The nucleotide sequence of the cloned cDNA was identical the previously reported hCRTH2 sequence (Nagata et al, 1999, J. Immunol. 162, 1278-1286).
HEK293 (EBNA) cells were transfected with the pCEP4-hCRTH2 construct using the calcium phosphate technique. Cells were maintained in culture at 37° C. in an atmosphere of 5% CO2 in Dulbecco's modified Eagle's F12 medium (Invitrogen), containing 10% heat-inactivated foetal calf serum (TerraCell International, Canada), 2 mM Glutamine, 100 units/ml of penicillin and 100 μg/ml streptomycin (Invitrogen). 48 hours after the transfection, cells were grown in presence of 300 μg/ml of Hygromycin B (Invitrogen) for 4 weeks and antibiotic resistant cells were amplified for cell membrane preparation.
Adherent HEK293 (EBNA) cells expressing hCRTH2 were cultured in 225 cm^2 cell culture flasks (Corning, USA) in 30 ml of medium. After two rinses of phosphate buffered saline (PBS), cells were harvested in 10 ml of PBS containing 1 mM EDTA, centrifuged at 500×g for 5 min at 4° C. and frozen at −80° C. The pellet was re-suspended in 50 mM Tris-HCl, pH 7.4, 2 mM EDTA, 250 mM Sucrose, containing protease inhibitor cocktail tablets, (Complete EDTA-free, Roche, Germany) and incubated 30 min at 4° C. Cells were disrupted by nitrogen cavitation (Parr Instruments, USA) at 4° C. (800 p.s.i. for 30 min), and centrifuged at 500×g for 10 min at 4° C. Pellet containing nuclei and cellular debris was discarded and supernatant was centrifuged 60 min at 4° C. at 45000×g. Membrane pellet was re-suspended in storage buffer (10 mM HEPES/KOH pH 7.4, 1 mM EDTA, 250 mM sucrose, protease inhibitor cocktail tablets) using Dounce homogenization and frozen in liquid nitrogen, and stored at −80° C.
as §1

[3] = target: T1, CRTH2; assay: [35S]GTPγS binding assay; format: biochemical; conditions: inhibition of [35S]GTPγS binding, membranes expressing hCRTH2, 80 nM PGD2 (antagonist activity)
Procedure: The [^35S]GTPγS assay measures the increase in guanine nucleotide exchange at G-proteins in cell membranes, resulting from agonist (PGD2) binding to CRTH2. This process can be monitored in vitro by incubating cell membranes containing G-proteins and CRTH2 with GDP and [^35S]GTPγS, a radiolabeled, hydrolysis-resistant analogue of GTP (see, Harrison et al., Life Sciences 74, 489-508, 2003). The addition of a pyrazine sulfonamide results in binding to CRTH2 and thus in an inhibition of agonist binding, which can be monitored as inhibition of the stimulation of GTP/GDP exchange.
Assay conditions were identical to conditions of radioligand binding assay as described in Example 21. The [^35S]GTPγS binding assay was performed at 30° C. with gentle agitation in 96-well scintillating white polystyrene plates (Perkin Elmer, USA), in a final volume of 200 μl, containing 2% of dimethylsulphoxide (Me2SO). The 2,3 substituted pyrazine sulfonamides were incubated in 20 mM HEPES/KOH pH 7.4, 1 mM MgCl2, 10 μg/ml Saponin, 3 μM GDP, 150 mM NaCl containing 10 μg of membranes expressing the hCRTH2 receptor (Euroscreen, Belgium) for 10 min. Non-specific binding was determined in the presence of 10 μM of GTPγS. Samples were incubated for 30 min in the presence of increasing concentrations of PGD2 for the determination of agonist activity, or with 80 nM of PGD2 for determination of antagonist activity, respectively. 0.15 nM of [^35S]GTPγS were subsequently added to each sample and after incubation of 30 min reactions were stopped by centrifugation at 1000×g, at 4° C. for 10 min. Supernatant was removed and [^35S]GTPγS binding was determined using a 1450 Micro-beta scintillation counter. Data were analysed using “Prism” (GraphPad Software, Inc. San Diego, USA). The determination of the IC50 values (i.e. the amount necessary to achieve 50% inhibition of binding (in μM)) were performed in 96 well plates, in a final volume of 100 μl according to the above described filtration assay. […]

T1 sequence (Q9Y5Y4 whole entry): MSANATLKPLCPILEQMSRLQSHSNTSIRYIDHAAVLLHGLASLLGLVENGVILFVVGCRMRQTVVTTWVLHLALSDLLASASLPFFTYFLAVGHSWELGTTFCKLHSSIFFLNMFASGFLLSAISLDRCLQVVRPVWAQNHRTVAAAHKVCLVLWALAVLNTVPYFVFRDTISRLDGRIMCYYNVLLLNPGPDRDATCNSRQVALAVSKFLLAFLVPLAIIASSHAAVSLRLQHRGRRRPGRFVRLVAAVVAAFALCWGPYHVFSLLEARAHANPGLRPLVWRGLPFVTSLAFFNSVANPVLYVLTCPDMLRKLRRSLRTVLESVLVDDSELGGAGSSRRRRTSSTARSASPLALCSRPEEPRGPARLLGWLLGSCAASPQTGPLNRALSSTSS

Ki [1] [nM]	Inhibition hCRTH2 [%] [2] [%]	IC50 [3] [nM]	Compound
1260	91.5	4600	CN(Cc1ccc(-c2nccnc2NS(=O)(=O)c2ccccc2Cl)cc1)c1ccc(OC(F)(F)F)cc1 [Compound 2, 2-chloro-N-{3-[4-({methyl[4-(trifluoromethoxy)phenyl]amino}-methyl)-phenyl]pyrazin-2-yl}benzene sulfonamide]
450	86.5	1400	CCc1nc2ccccc2n1Cc1ccc(-c2nccnc2NS(=O)(=O)c2ccccc2C(F)(F)F)cc1 [Compound 3, N-(3-{4-[(2-ethyl-1H-benzimidazol-1-yl)methyl]phenyl}pyrazin-2-yl)-2-(trifluoromethyl)benzenesulfonamide]
1010	94.5	1900	O=S(=O)(Nc1nccnc1-c1ccc(Cn2ccc3ccccc32)cc1)c1ccccc1C(F)(F)F [Compound 1, N-{3-[4-(1H-indol-1-ylmethyl)phenyl]pyrazin-2-yl}-2-(trifluoromethyl)benzene-sulfonamide]
